{"source": "patent US20260241043A1", "about": "“Carrier Peptide Fragment and Use Thereof” (TOAGOSEI CO., LTD., priority 2022, published 2026)", "note": "Primed or numbered codes have the meaning given here. FAM″ = C-terminal FAM dye", "data": [{"test_system": "NSC-34 cells", "assay": "Evaluation on cell membrane permeability by flow cytometry", "type": "cell-based, mouse", "conditions": "10 μM additive, 0.5% DMSO, 20 hours incubation at 37° C., fluorescence detector FL2", "description": "As the eukaryotic cells, NSC-34 cells (mouse motor neuron-like hybrid cell line) were used and the cell membrane permeability of the constructs 1 to 3 was analyzed. In Examples 1 to 3, the prepared samples 1 to 3 were used, respectively, and in Example 4, a FAM solution was used.\nThe NSC-34 cells were cultured in 10% fetal bovine serum (FBS)-containing Dulbecco's modified Eagle's medium (DMEM (Cat No. 044-29765, manufactured by FUJIFILM Wako Pure Chemical Corporation)), which is a normal culture medium.\nThe NSC-34 cells that adhered to a culture plate were cleaned with PBS and then, a 0.25%-trypsin/EDTA solution was added thereto, and incubation was performed for three minutes at 37° C. After the incubation, the aforementioned 10% FBS-containing DMEM was added to deactivate trypsin and then, five-minute centrifugal separation was performed at 150×g to precipitate the cells. After the supernatant generated by the centrifugal separation was removed, the 10% FBS-containing DMEM was added to the precipitate (cell pellet) to prepare a cell suspension of about 2× 10^5 cells/mL. The cell suspension was added by 1 mL to a well of a commercially available six-hole (well) plate (manufactured by AGC TECHNO GLASS Co., Ltd.) so as to seed the cell (about 2× 10^5 cells/well). In addition, the 2 mM sample solution 1 was diluted with the 10% FBS-containing DMEM to prepare the sample solution 1 in which the concentration of the sample 1 was 20 μM. […]\nRegarding the obtained cells (cell pellet), the cell membrane permeability of the sample 1 was analyzed using a flow cytometer. […]\nUsing the aforementioned flow cytometer, gating based on forward scatter (FSC) and side scatter (SSC) was performed to set a gate about a cell group to be analyzed, and the fluorescence intensity was measured about the cell group in this gate. […] The fluorescence intensity was measured using a fluorescence detector FL2 of the flow cytometer (optimum detection wavelength around 543 nm) capable of detecting the fluorescence wavelength of FAM. […]", "values": [{"substance": "Ac-RKKRNSKRLTRKK-FAM (Ac-RKKRNSKRLTRKK-{FAM″}) [Example 1, N-terminally acetylated peptide 1 (all L-form) with FAM fluorescent dye bonded to the C-terminus]", "MFI (median fluorescence intensity)": 14.6}, {"substance": "Ac-RkkRNSkRLTRkk-FAM [Example 3]", "MFI (median fluorescence intensity)": 27.3}, {"substance": "Ac-rKKrNSKrLTrKK-FAM [Example 2]", "MFI (median fluorescence intensity)": 37.7}]}]}
